Measurements: patent US11331368B2, “Angiotensin receptor agonists and uses thereof” (Monash University, priority 2017, dated 2022)

Tests used:
[1] = test system: male FVB/N mice on high salt diet, liver; test: High salt (5%) diet intervention model, liver; assay type: in vivo, mouse; details: weeks 5-8; peptides 75 pmol/kg/min s.c.; Cand 2 mg/kg/day, captopril 3 mg/kg/day
[2] = test system: male FVB/N mice on high salt diet, heart; test: High salt (5%) diet intervention model, heart; assay type: in vivo, mouse
Outline: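 Male FVB/N mice fed 5% salt diet for 8 weeks (controls 0.35% NaCl); from week 4, AT2R agonist at 75 pmol/kg/min or saline given subcutaneously by osmotic minipump for 4 weeks on continued high salt. Heart collagen by picrosirius red, % interstitial staining averaged over eight fields; immunofluorescence for fibrosis/inflammation markers.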

[3] = test system: stroke-prone spontaneously hypertensive rats (SHRSP); test: Stroke-prone spontaneously hypertensive rats (SHRSP), 4-week infusion; assay type: in vivo, rat; details: 75 pmol/kg/min s.c. for 4 weeks
Procedure: FIG. 27: AT2R stimulation by β-Pro^7-Ang III attenuates cardiac fibrosis in stroke-prone spontaneously hypertensive rats (SHRSP). Mean data for cardiac fibrosis determined by picrosirius red staining of transverse heart sections, under bright field microscopy, taken from ˜25-week old, male stroke-prone spontaneously hypertensive rats (SHRSP) that received either saline or β-Pro^7-Ang III (75 pmol/kg/min subcutaneously via osmotic mini-pump) for 4 weeks (n=3-4). Data expressed as mean±s.e.m of percentage positive stained area for fibrosis. **P<0.01 versus saline (unpaired t-test).
For the first time, β-Pro^7-Ang III was tested at the same dose, duration and route of administration (75 pmol/kg/min subcutaneously via osmotic mini-pump for 4 weeks) in adult male stroke-prone spontaneously hypertensive rats (SHRSP).

mouse aortae = test: Vasorelaxation of pre-contracted mouse aortae; details: 0.1-1000 nM, pre-contracted with U46619
Excerpt: FIG. 17: The selective AT2R ligands, β-Pro^7-Ang III and D-Arg^2-β-Pro^7-Ang III, are functional agonists in vasculature.

For “Arg-Val-Tyr-Ile-His-β-Pro-Phe [βPro-Ang III]”, which “liver fibrosis (picrosirius red, polarized light)” value [1] is on record?
The value was “appears to attenuate”.

And the “liver steatosis (Oil Red O)” value [1]?
Its value is “partially reversed”.

What about the “myofibroblast differentiation in heart (α-SMA)” value ([2]; 75 pmol/kg/min s.c., weeks 5-8) of the same substance?
The value was “fully reversed the high salt-induced myofibroblast differentiation”.

And the “cardiac fibrosis (picrosirius red)” value ([2]; weeks 5-8 of high salt diet, peptides 75 pmol/kg/min s.c. mini-pump, Cand 2 mg/kg/day, captopril 3 mg/kg/day in drinking water)?
Its value is “reversed established cardiac fibrosis”.

And the “SBP in SHRSP” value [3]?
The value was “did not affect SBP”.

What about the “cardiac fibrosis (picrosirius red) in SHRSP” value [3] of the same substance?
Its value is “significantly reduced cardiac fibrosis”.

And the “vasorelaxation of pre-contracted aortae” value (mouse aortae)?
The value was “concentration-dependent vasorelaxation”.
